# US9738634B2, “Heterocyclic amide compound and herbicide” (SYNGENTA PARTICIPATIONS AG, priority 2013, dated 2017)
# Tests used:
# Format in all cases: in vivo
# barnyard grass [1] = test: Test Example 1: weedkilling efficacy, preemergent weed treatment in the submerged state; A: barnyard grass; conditions: treatment dosage 252 g/ha
# Outline: (§1)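 Pots of alluvial soil flooded 4 cm deep, sown with barnyard grass, bulrush and oval-leafed pondweed and transplanted with 2.5-leaf rice. Emulsified compound applied to the water surface on sowing day at stated g/ha; greenhouse 25–30 °C, effects assessed 3 weeks after treatment.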
# bulrush [2] = test: Test Example 1: weedkilling efficacy, preemergent weed treatment in the submerged state; B: bulrush; conditions: treatment dosage 252 g/ha
# Outline: as §1
# oval-leafed pondweed [3] = test: Test Example 1: weedkilling efficacy, preemergent weed treatment in the submerged state; C: oval-leafed pondweed; conditions: treatment dosage 252 g/ha
# Outline: as §1
# transplanted rice = test: Test Example 1: preemergent weed treatment in the submerged state, effect on crop; a: transplanted rice; conditions: treatment dosage 252 g/ha
# Outline: as §1
# barnyard grass [4] = test: Test Example 2: weedkilling efficacy, growth period weed treatment in the submerged state; A: barnyard grass; conditions: treatment dosage 252 g/ha
# Outline: (§2)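 Barnyard grass, bulrush and oval-leafed pondweed sown in alluvial soil under 4 cm flooding, greenhouse 25 to 30° C. At 1-2 leaf stage, water-diluted emulsion applied to the water surface at stated g/ha dosages; effects scored 3 weeks later.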
# bulrush [5] = test: Test Example 2: weedkilling efficacy, growth period weed treatment in the submerged state; B: bulrush; conditions: treatment dosage 252 g/ha
# Outline: as §2
# oval-leafed pondweed [6] = test: Test Example 2: weedkilling efficacy, growth period weed treatment in the submerged state; C: oval-leafed pondweed; conditions: treatment dosage 252 g/ha
# Outline: as §2
# crabgrass [7] = test: Test Example 3: weedkilling efficacy through soil treatment; D: crabgrass; conditions: treatment dosage 315 g/ha
# Outline: (§3)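 Crop and weed responses were judged three weeks after a uniform surface spray of the water-diluted emulsion at the given g/ha rate. Seeds sat beneath about 1.5 cm of sterilized diluvial soil, and boxes stood in a greenhouse at 25 to 30° C.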
# green foxtail [8] = test: Test Example 3: weedkilling efficacy through soil treatment; E: green foxtail; conditions: treatment dosage 315 g/ha
# Outline: as §3
# wild oat [9] = test: Test Example 3: weedkilling efficacy through soil treatment; G: wild oat; conditions: treatment dosage 315 g/ha
# Outline: as §3
# black-grass [10] = test: Test Example 3: weedkilling efficacy through soil treatment; H: black-grass; conditions: treatment dosage 315 g/ha
# Outline: as §3
# Italian ryegrass [11] = test: Test Example 3: weedkilling efficacy through soil treatment; I: Italian ryegrass; conditions: treatment dosage 315 g/ha
# Outline: as §3
# Indian mallow [12] = test: Test Example 3: weedkilling efficacy through soil treatment; K: Indian mallow; conditions: treatment dosage 315 g/ha
# Outline: as §3
# redroot pigweed [13] = test: Test Example 3: weedkilling efficacy through soil treatment; L: redroot pigweed; conditions: treatment dosage 315 g/ha
# Outline: as §3
# fig-leafed goosefoot [14] = test: Test Example 3: weedkilling efficacy through soil treatment; M: fig-leafed goosefoot; conditions: treatment dosage 315 g/ha
# Outline: as §3
# chickweed [15] = test: Test Example 3: weedkilling efficacy through soil treatment; N: chickweed; conditions: treatment dosage 315 g/ha
# Outline: as §3
# catchweed [16] = test: Test Example 3: weedkilling efficacy through soil treatment; O: catchweed; conditions: treatment dosage 315 g/ha
# Outline: as §3
# birds-eye speedwell [17] = test: Test Example 3: weedkilling efficacy through soil treatment; p: birds-eye speedwell; conditions: treatment dosage 315 g/ha
# Outline: as §3
# directly sown rice [18] = test: Test Example 3: soil treatment, effect on crop; b: directly sown rice; conditions: treatment dosage 315 g/ha
# Outline: as §3
# corn [19] = test: Test Example 3: soil treatment, effect on crop; c: corn; conditions: treatment dosage 315 g/ha
# Outline: as §3
# soybean [20] = test: Test Example 3: soil treatment, effect on crop; d: soybean; conditions: treatment dosage 315 g/ha
# Outline: as §3
# wheat [21] = test: Test Example 3: soil treatment, effect on crop; e: wheat; conditions: treatment dosage 315 g/ha
# Outline: as §3
# beet [22] = test: Test Example 3: soil treatment, effect on crop; f: beet; conditions: treatment dosage 315 g/ha
# Outline: as §3
# crabgrass [23] = test: Test Example 4: weedkilling efficacy by foliar treatment; D: crabgrass; conditions: treatment dosage 315 g/ha
# Outline: (§4)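 Seeds are spot-sown into sterilized diluvial soil and covered with about 1.5 cm of soil. After 14 days' greenhouse growth at 25 to 30° C, plants are sprayed on stems and leaves with diluted emulsion at the stated g/ha rate, then scored at 3 weeks.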
# green foxtail [24] = test: Test Example 4: weedkilling efficacy by foliar treatment; E: green foxtail; conditions: treatment dosage 315 g/ha
# Outline: as §4
# wild oat [25] = test: Test Example 4: weedkilling efficacy by foliar treatment; G: wild oat; conditions: treatment dosage 315 g/ha
# Outline: as §4
# black-grass [26] = test: Test Example 4: weedkilling efficacy by foliar treatment; H: black-grass; conditions: treatment dosage 315 g/ha
# Outline: as §4
# Italian ryegrass [27] = test: Test Example 4: weedkilling efficacy by foliar treatment; I: Italian ryegrass; conditions: treatment dosage 315 g/ha
# Outline: as §4
# Indian mallow [28] = test: Test Example 4: weedkilling efficacy by foliar treatment; K: Indian mallow; conditions: treatment dosage 315 g/ha
# Outline: as §4
# redroot pigweed [29] = test: Test Example 4: weedkilling efficacy by foliar treatment; L: redroot pigweed; conditions: treatment dosage 315 g/ha
# Outline: as §4
# fig-leafed goosefoot [30] = test: Test Example 4: weedkilling efficacy by foliar treatment; M: fig-leafed goosefoot; conditions: treatment dosage 315 g/ha
# Outline: as §4
# chickweed [31] = test: Test Example 4: weedkilling efficacy by foliar treatment; N: chickweed; conditions: treatment dosage 315 g/ha
# Outline: as §4
# catchweed [32] = test: Test Example 4: weedkilling efficacy by foliar treatment; O: catchweed; conditions: treatment dosage 315 g/ha
# Outline: as §4
# birds-eye speedwell [33] = test: Test Example 4: weedkilling efficacy by foliar treatment; p: birds-eye speedwell; conditions: treatment dosage 315 g/ha
# Outline: as §4
# directly sown rice [34] = test: Test Example 4: foliar treatment, effect on crop; b: directly sown rice; conditions: treatment dosage 315 g/ha
# Outline: as §4
# corn [35] = test: Test Example 4: foliar treatment, effect on crop; c: corn; conditions: treatment dosage 315 g/ha
# Outline: as §4
# soybean [36] = test: Test Example 4: foliar treatment, effect on crop; d: soybean; conditions: treatment dosage 315 g/ha
# Outline: as §4
# wheat [37] = test: Test Example 4: foliar treatment, effect on crop; e: wheat; conditions: treatment dosage 315 g/ha
# Outline: as §4
# beet [38] = test: Test Example 4: foliar treatment, effect on crop; f: beet; conditions: treatment dosage 315 g/ha
# Outline: as §4
smiles,measurement,setting,value
CC1=C(c2cccnc2F)C(=O)N(C(C)(C)C(=O)Nc2cc(Cl)ccn2)CO1 [B-2-07],A (barnyard grass) weedkilling efficacy grade,barnyard grass [1],"5 (weed kill ratio 90% or more, (practically complete withering))"
same,B (bulrush) weedkilling efficacy grade,bulrush [2],"5 (weed kill ratio 90% or more, (practically complete withering))"
same,C (oval-leafed pondweed) weedkilling efficacy grade,oval-leafed pondweed [3],"5 (weed kill ratio 90% or more, (practically complete withering))"
same,a (transplanted rice) effect on crop grade,transplanted rice,0 (weed kill ratio 5% or less (practically no effect))
same,A (barnyard grass) weedkilling efficacy grade,barnyard grass [4],"3 (weed kill ratio 40% or more, less than 70%)"
same,B (bulrush) weedkilling efficacy grade,bulrush [5],"5 (weed kill ratio 90% or more, (practically complete withering))"
same,C (oval-leafed pondweed) weedkilling efficacy grade,oval-leafed pondweed [6],"2 (weed kill ratio 20% or more, less than 40%)"
same,D (crabgrass) weedkilling efficacy grade,crabgrass [7],"5 (weed kill ratio 90% or more, (practically complete withering))"
same,E (green foxtail) weedkilling efficacy grade,green foxtail [8],"5 (weed kill ratio 90% or more, (practically complete withering))"
same,G (wild oat) weedkilling efficacy grade,wild oat [9],"3 (weed kill ratio 40% or more, less than 70%)"
same,H (black-grass) weedkilling efficacy grade,black-grass [10],"5 (weed kill ratio 90% or more, (practically complete withering))"
same,I (Italian ryegrass) weedkilling efficacy grade,Italian ryegrass [11],"5 (weed kill ratio 90% or more, (practically complete withering))"
same,K (Indian mallow) weedkilling efficacy grade,Indian mallow [12],"2 (weed kill ratio 20% or more, less than 40%)"
same,L (redroot pigweed) weedkilling efficacy grade,redroot pigweed [13],"3 (weed kill ratio 40% or more, less than 70%)"
same,M (fig-leafed goosefoot) weedkilling efficacy grade,fig-leafed goosefoot [14],"3 (weed kill ratio 40% or more, less than 70%)"
same,N (chickweed) weedkilling efficacy grade,chickweed [15],"3 (weed kill ratio 40% or more, less than 70%)"
same,O (catchweed) weedkilling efficacy grade,catchweed [16],"3 (weed kill ratio 40% or more, less than 70%)"
same,P (birds-eye speedwell) weedkilling efficacy grade,birds-eye speedwell [17],"5 (weed kill ratio 90% or more, (practically complete withering))"
same,b (directly sown rice) effect on crop grade,directly sown rice [18],"4 (weed kill ratio 70% or more, less than 90%)"
same,c (corn) effect on crop grade,corn [19],"3 (weed kill ratio 40% or more, less than 70%)"
same,d (soybean) effect on crop grade,soybean [20],"1 (weed kill ratio 5% or more, less than 20%)"
same,e (wheat) effect on crop grade,wheat [21],0 (weed kill ratio 5% or less (practically no effect))
same,f (beet) effect on crop grade,beet [22],"1 (weed kill ratio 5% or more, less than 20%)"
same,D (crabgrass) weedkilling efficacy grade,crabgrass [23],"5 (weed kill ratio 90% or more, (practically complete withering))"
same,E (green foxtail) weedkilling efficacy grade,green foxtail [24],"4 (weed kill ratio 70% or more, less than 90%)"
same,G (wild oat) weedkilling efficacy grade,wild oat [25],"3 (weed kill ratio 40% or more, less than 70%)"
same,H (black-grass) weedkilling efficacy grade,black-grass [26],"4 (weed kill ratio 70% or more, less than 90%)"
same,I (Italian ryegrass) weedkilling efficacy grade,Italian ryegrass [27],"5 (weed kill ratio 90% or more, (practically complete withering))"
same,K (Indian mallow) weedkilling efficacy grade,Indian mallow [28],"1 (weed kill ratio 5% or more, less than 20%)"
same,L (redroot pigweed) weedkilling efficacy grade,redroot pigweed [29],"2 (weed kill ratio 20% or more, less than 40%)"
same,M (fig-leafed goosefoot) weedkilling efficacy grade,fig-leafed goosefoot [30],"3 (weed kill ratio 40% or more, less than 70%)"
same,N (chickweed) weedkilling efficacy grade,chickweed [31],"2 (weed kill ratio 20% or more, less than 40%)"
same,O (catchweed) weedkilling efficacy grade,catchweed [32],"2 (weed kill ratio 20% or more, less than 40%)"
same,P (birds-eye speedwell) weedkilling efficacy grade,birds-eye speedwell [33],"3 (weed kill ratio 40% or more, less than 70%)"
same,b (directly sown rice) effect on crop grade,directly sown rice [34],"4 (weed kill ratio 70% or more, less than 90%)"
same,c (corn) effect on crop grade,corn [35],"1 (weed kill ratio 5% or more, less than 20%)"
same,d (soybean) effect on crop grade,soybean [36],"3 (weed kill ratio 40% or more, less than 70%)"
same,e (wheat) effect on crop grade,wheat [37],0 (weed kill ratio 5% or less (practically no effect))
same,f (beet) effect on crop grade,beet [38],"3 (weed kill ratio 40% or more, less than 70%)"
